# Columns and labels:
# [1] = stability constants of Fe(III) complexes by pH-potentiometry; format: physicochemical; conditions: 30% (v/v) DMSO/H2O; for pFe(III)* (−logΣ[Fe(III)i(OH)j]): calculated at pH 7.4, cFe = 1 μM, cligand = 10 μM
# Procedure: The pH-potentiometric measurements for the determination of the proton dissociation constants of the ligands and the overall stability constants of the metal complexes were carried out at 25.0 ± 0.1 °C in water or in 30% (v/v) DMSO/H2O as solvent and at an ionic strength of 0.10 M (KCl). The titrations were performed with carbonate-free KOH solution of known concentration (0.10 M). The concentrations of the base and the HCl were determined by pH-potentiometric titrations. An Orion 710A pH-meter equipped with a Metrohm combined electrode (type 6.0234.100), and a Metrohm 665 Dosimat burette were used for the titrations. […] The average water ionization constant pKw was 13.76 ± 0.05 (water) or 14.52 ± 0.05 (30% (v/v) DMSO/H2O). The pH-potentiometric titrations were performed in the pH range 2.0–12.5. The initial volume of the samples was 10.0 mL. The ligand concentration was 2 mM and metal ion-to-ligand ratios of 1:1–1:3 were used. The accepted fitting of the titration curves was always less than 0.01 mL. Argon was always passed over the solutions during the titrations. The exact concentration of the ligand stock solutions together with the proton dissociation constants were determined by pH-potentiometric titrations with the use of the computer program HYPERQUAD [44]. It was also utilized to establish the stoichiometry of the complexes and to calculate the stability constants (β(MpLqHr)). β(MpLqHr) is defined for the general equilibrium pM + qL + rH ⇋ MpLqHr as β(MpLqHr) = [MpLqHr]/[M]^p[L]^q[H]^r, where M denotes the metal ion and L the completely deprotonated ligand. In all calculations exclusively, titration data were used from experiments in which no precipitate was visible in the reaction mixture.
# [2] = n-octanol/water distribution coefficient, shake-flask; format: physicochemical; conditions: n-octanol/buffered aqueous solution, pH 7.4; n-octanol/H2O, pH 7.40, 25 °C, 0.10 M KCl; read-out: logD7.4
# Procedure: Distribution coefficients (D7.4) values were determined by the traditional shake-flask method in n-octanol/buffered aqueous solution at pH 7.40 (20 mM HEPES, 0.10 M KCl) at 25.0 ± 0.2 °C as described previously.
# [3] = test system: Colo-320 (doxorubicin-resistant) human colon adenocarcinoma cells; test: MTT cytotoxicity test; format: cell-based; conditions: Homo sapiens, Colo-320, 72 h
# Procedure: (§1) All cell culture reagents were obtained from Sigma-Aldrich and plastic ware from Sarstedt (Nümbrecht, Germany). Human colon Colo-205 (chemo-sensitive) and Colo-320 (doxorubicin-resistant) adenocarcinoma and MRC-5 human embryonal lung fibroblast cell lines were purchased from LGC Promochem, Teddington, UK. The colon adenocarcinoma cells were cultured in Roswell Park Memorial Institute (RPMI) 1640 medium supplemented with 10% heat-inactivated fetal bovine serum, 2 mM L-glutamine, 1 mM sodium pyruvate and 100 mM HEPES. The MRC-5 cell line was cultured in Eagle’s Minimal Essential Medium (EMEM, Sigma-Aldrich, St. Louis, MO, USA) supplemented with a non-essential amino acid (NEAA) mixture (Sigma-Aldrich, St. Louis, MO, USA) a selection of vitamins, 10% heat-inactivated foetal bovine serum (FBS), 2 mM L-glutamine (Sigma-Aldrich, St. Louis, MO, USA), 1 mM Na-pyruvate (Sigma-Aldrich, St. Louis, MO, USA), nystatin (Sigma-Aldrich, St. Louis, MO, USA) and a penicillin-streptomycin mixture (Sigma-Aldrich, St. Louis, MO, USA) in concentrations of 100 U/L and 10 mg/L, respectively. The cells were incubated at 37 °C, in a 5% CO2, 95% air atmosphere. All cell lines were detached with Trypsin-Versene® (EDTA) solution for 5 min at 37 °C.
# (§2) The tested compounds were dissolved in 90% (v/v) DMSO/H2O using 8 mM concentration, […] in the final samples the DMSO content was always lower than 1%. Then stock solutions were diluted in complete culture medium, and two-fold serial dilutions of compounds were prepared in 100 μL of the medium, horizontally. The semi-adherent colon adenocarcinoma cells were treated with Trypsin-Versene (EDTA) solution. They were adjusted to a density of 1 × 10^4 cells in 100 μL of RPMI 1640 or EMEM medium and were added to each well, with the exception of the medium control wells. The final volume of the wells containing compounds and cells was 200 μL. The plates containing Colo-205, Colo-320 or MRC-5 cells were incubated at 37 °C for 72 h; at the end of the incubation period, 20 μL of MTT solution (from a stock solution of 5 mg/mL) were added to each well. After incubation at 37 °C for 4 h, 100 μL of SDS solution (10% in 0.01 M HCI) were added to each well, and the plates were further incubated at 37 °C overnight. Cell growth was determined by measuring the optical density (OD) at 540/630 nm with a Multiskan EX plate reader (Thermo Labsystems, Cheshire, WA, USA). Inhibition of the cell growth (expressed as IC50: inhibitory concentration that reduces by 50% the growth of the cells exposed to the tested compounds) was determined from the sigmoid curve where 100 − ((ODsample − ODmedium control)/(ODcell control − ODmedium control)) × 100 values were plotted against the logarithm of compound concentrations. Curves were fitted by GraphPad Prism software (2021, Graphpad Software, San Diego, CA, USA) using the sigmoidal dose–response model (comparing variable and fixed slopes). The IC50 values were obtained from at least three independent experiments.
# [4] = test system: MRC-5 human embryonal lung fibroblast cells; test: MTT cytotoxicity test; format: cell-based; conditions: Homo sapiens, MRC5, MRC-5, 72 h
# Procedure: as §1, §2
# [5] = test system: Colo-205 human colon adenocarcinoma cells; test: MTT cytotoxicity test; format: cell-based; conditions: Homo sapiens, Colo-205, 72 h
# Procedure: as §1, §2
Structure (SMILES),"logβ [Fe(III)L2]+ ([1]; 25 °C, I = 0.10 M (KCl))","logβ [Fe(III)L]2+ ([1]; 25 °C, I = 0.10 M (KCl))",pFe(III)* (−logΣ[Fe(III)i(OH)j]) [1],logD [2],IC50 [3] [µM],IC50 [4] [µM],IC50 [5] [µM],"logβ [Fe(III)L2H−1] ([1]; 25 °C, I = 0.10 M (KCl))","logβ [Fe(III)L2H−2]− ([1]; 25 °C, I = 0.10 M (KCl))"
"N=C(N)NN=Cc1ccccc1O [SISC, 2-(2-hydroxybenzylidene)hydrazinecarboximidamide]",27.46 ± 0.05,14.96 ± 0.05,7.9,0.83,> 80,> 80,> 80,–,–
Cc1cc(C=NNC(=N)N)c(O)c(CN2CCCC2C(=O)O)c1 (stereo not shown) [Pro-SISC-Me],27.63 ± 0.05,15.25 ± 0.04,10.0,-0.88 ± 0.05,> 80,> 80,> 80,18.40 ± 0.07,8.64 ± 0.08

# From article PMC9000575, “Solution Equilibrium Studies on Salicylidene Aminoguanidine Schiff Base Metal Complexes: Impact of the Hybridization with L-Proline on Stability, Redox Activity and Cytotoxicity” (Molecules, 2022)
